{
  "source": "patent US20260137696A1",
  "about": "“Compositions Comprising an Inhibitor of Galectin-3” (University of Liverpool, priority 2023, published 2026)",
  "key": {"[1]": {"tested_on": "THP-1 differentiated macrophages", "experiment": "Galectin-3-induced pro-inflammatory cytokine secretion, cytokine ELISA", "format": "cell-based", "settings": "Galectin-3 10 μg/ml, various concentrations", "method": "Secretion of pro-inflammatory cytokines IL-6 (FIG. 7A), IL-1β (FIG. 7B) and TNFα (FIG. 7C) from THP-1 differentiated macrophages was analysed in the absence or presence of Galectin-3 (10 μg/ml) and various concentrations of the compound of Formula I by cytokine ELISA.\nTHP-1 monocytes (5×10^5 cells/ml) were differentiated into macrophages by incubation with 10 ng/ml Phorbol 12-myristate-13-acetate (PMA) for 48 h at 37° C. The differentiated cells were washed gently with medium before introduction of fresh medium without or with 10 μg/ml Galectin-3, and/or different concentrations of the inhibitors for 24 h at 37° C. The culture medium was collected and the concentrations of IL-6, TNFα and IL1β in the medium were measured by IL-6, TNFα and IL1β ELISA kits according to the manufacture's protocols."}, "[2]": {"tested_on": "Salmonella typhimurium strain TA100", "experiment": "Ames test (genotoxicity)", "format": "cell-based", "settings": "TA100, up to 1 mM tested, with or without metabolic activation (S9)", "method": "(§1) Mutagenic potential of the compound of Formula I was assessed by Ames test in two Salmonella typhimurium strains TA98 and TA100 without and with metabolic activation (S9).\n(§2) Effect of the compound inhibitors on genotoxicity was determined using the Salmonella typhimurium strains of TA 98 and TA 100 in the presence and absence of metabolic activation (S9). Each test concentration included the vehicle and positive controls. Briefly, the compounds were serially diluted in 24-well plates with or without the presence metabolic activation system (S9) and was incubated for 90 min at 37° C. in 250 rpm in a orbital shaking incubator. TA98 and TA100 were then introduced to the wells for 90 min. 50 μL aliquots from each well was dispensed into 384 well plates and incubated for 48 hrs at 37° C. in an incubator before positive wells were scored."}, "[3]": {"tested_on": "Salmonella typhimurium strain TA98", "experiment": "Ames test (genotoxicity)", "format": "cell-based", "settings": "TA98, up to 1 mM tested, with or without metabolic activation (S9)", "method": "as §1, §2"}, "SW620 cells": {"tested_on": "SW620 cells", "experiment": "Tumour growth in mice (subcutaneous graft)", "format": "in vivo, Balb/c nude mice", "settings": "5 mg/kg subcutaneously, 3 times a week for 4 weeks", "method": "(§3) The compound of Formula I effect on tumour growth was assessed in Balb/c nude mice. Luciferase-transfected human colon cancer SW620 cells were grafted subcutaneously to mice and the compound of Formula I (5 mg/kg) was administrated subcutaneously, 3 times a week for 4 weeks. Tumour growths were monitored by IVIS imaging (FIG. 11A) and also measured by clipers.\nas §3, with “imaging” for “imaging (FIG. 11A)”\n(§4) Female Balb/c nude mice aged 6-7 weeks were purchased from Charles River Laboratories (Margate, UK) and maintained in specific pathogen-free conditions with a 12:12 hour light:dark cycle. All animal studies were conducted with UK Home Office and local ethics committee approval.\nSixteen 6˜7 weeks old mice were randomly divided into two equal A and B groups (8 mice/group). The animals were injected s.c. with 2×10^6 ZsGreen- and luciferase-expressing SW620Gal3+ cells. […] Tumour size were measured with callipers every two days. […]"}, "SW620^Gal3+ cells": {"tested_on": "SW620^Gal3+ cells", "experiment": "Tumour cell metastatic spread in mice (intravenous inoculation)", "format": "in vivo, Balb/c nude mice", "settings": "10 mg/kg/day subcutaneously", "method": "(§5) The compound of Formula I effect on cancer metastasis was assessed in Balb/c nude mice. Luciferase-transfected, Galectin-3-expressing colon cancer SW620^Gal3+ and Galectin-3-suppressed SW620^Gal3− cells were inoculated to mice intravenously and the compound of Formula I was administrated subcutaneously, 10 mg/kg/day for 3 consecutive days in the first week and then once every week. Metastasis was monitored by IVIS imaging. […] The animals were sacrificed five weeks after tumour cell inoculation and the number of metastasis nodules on the surface of the animal lungs were quantified (FIG. 12B). Administration of the compound of Formula I caused 88% reduction of lung metastasis of Galectin-3-expressing SW620^Gal3+ cells but had little effect on Galectin-3-suppressed SW620^Gal3− cells;\nas §5, with “for 5” for “for 3”, “first” for “first week and then once every”, “Galectin-3-suppressed SW620^Gal3 cells.” for “Galectin-3-suppressed SW620^Gal3− cells;”\nas §4\n(§6) Thirty-two mice were randomly divided into four groups (A to D). […] Tumour number on the surface of the lungs was assessed using a dissection microscope."}, "SW620^Gal3− cells": {"tested_on": "SW620^Gal3− cells", "experiment": "Tumour cell metastatic spread in mice (intravenous inoculation)", "format": "in vivo, Balb/c nude mice", "settings": "10 mg/kg/day subcutaneously; Galectin-3-suppressed SW620^Gal3− cells", "method": "as §5\nas §5, with “for 5” for “for 3”, “first” for “first week and then once every”, “Galectin-3-suppressed SW620^Gal3 cells.” for “Galectin-3-suppressed SW620^Gal3− cells;”\nas §4, §6"}},
  "data": [
    {"molecule": "C[C@H]1COc2c(N3CCN(C)CC3)c(F)cc3c(=O)c(C(=O)NNc4ccc(N)cc4)cn1c23", "note": "[Formula I]", "values": [
      {"measurement": "Galectin-3-induced secretion of IL-1β", "setting": "[1]", "result": "dose-dependent inhibition"},
      {"measurement": "Galectin-3-induced secretion of IL-6", "setting": "[1]", "result": "dose-dependent inhibition"},
      {"measurement": "Galectin-3-induced secretion of TNFα", "setting": "[1]", "result": "dose-dependent inhibition"},
      {"measurement": "mutagenic activity", "setting": "[2]", "result": "no mutagenic activity"},
      {"measurement": "mutagenic activity", "setting": "[3]", "result": "no mutagenic activity"},
      {"measurement": "inhibition of tumour growth", "setting": "SW620 cells", "result": 51, "unit": "%"},
      {"measurement": "lung metastasis in IVIS imaging", "setting": "SW620^Gal3+ cells; 14 days after tumour cell inoculation", "result": "Substantially lower"},
      {"measurement": "reduction of lung metastasis (metastasis nodules on lung surface)", "setting": "SW620^Gal3+ cells; five weeks after tumour cell inoculation", "result": 88, "unit": "%"},
      {"measurement": "effect on lung metastasis", "setting": "SW620^Gal3− cells", "result": "little effect"}
    ]}
  ]
}
